Assays:
[1] = molecular target: Myeloid Cell Leukemia 1 (Mcl-1) (Homo sapiens, UniProt Q07820); test: Terbium labeled Mcl-1 HTRF binding assay (displacement of Cy5-labeled BIM BH3 peptide); details: 25 pM Tb-Mcl-1, 8 nM Cy5 Bim peptide, [L] = 8 nM, Kd = 10 nM, 60 minutes at room temperature, read-out: Tb-MCL1 Ki
Protocol: Terbium labeled Myeloid Cell Leukemia 1(Mcl-1) homogeneous time-resolved fluorescence (HTRF) binding assay utilizing the BIM BH3 peptide (H2N-(C/Cy5Mal) WIAQELRRIGDEFN-OH) as the binding partner for Mcl-1.
This assay evaluated inhibition of the BH3 domain : Mcl-1 interaction by measuring the displacement of Cy5-labeled BIM BH3 peptide (H2N-(C/Cy5Mal) WIAQELRRIGDEFN-OH) in the HTRF assay format.
The following assay and stock buffers were prepared for use in the assay: (a) Stock buffer: 10 mM Tris-HCl, pH=7.5 + 150 mM NaCl, filtered, sterilized, and stored at 4° C.; and (b) 1X assay buffer, where the following ingredients were added fresh to stock buffer: 2 mM dithiothreitol (DTT), 0.0025% Tween-20, 0.1 mg/mL bovine serum albumin (BSA). The 1X Tb-Mcl-1 + Cy5 Bim peptide solution was prepared by diluting the protein stock solution using the 1X assay buffer (b) to 25 pM Tb-Mcl-1 and 8 nM Cy5 Bim peptide.
Using the Acoustic ECHO, 100 nL of 100x test compound(s) were dispensed into individual wells of a white 384-well Perkin Elmer Proxiplate, for a final compound concentration of 1x and final DMSO concentration of 1%. Inhibitor control and neutral control (NC, 100 nL of 100% DMSO) were stamped into columns 23 and 24 of assay plate, respectively. Into each well of the plate was then dispensed 10µL of the 1X Tb-Mcl-1 + Cy5 Bim peptide solution. The plate was centrifuged with a cover plate at 1000 rpm for 1 minute, then incubated for 60 minutes at room temperature with plates covered. The TR-FRET signal was read on an BMG PHERAStar FSX MicroPlate Reader at room temperature using the HTRF optic module (HTRF: excitation: 337 nm, light source: laser, emission A: 665 nm, emission B: 620 nm, integration start: 60 µs, integration time: 400 µs).
The BMG PHERAStar FSX MicroPlate Reader was used to measure fluorescence intensity at two emission wavelengths - 665 nm and 620 nm - and report relative fluorescence units (RFU) for both emissions, as well as a ratio of the emissions (665 nm/620 nm)*10,000. The RFU values were normalized to percent inhibition as follows: • % inhibition = (((NC - IC) - compound - IC)) / (NC - IC)) *100 where IC (inhibitor control, low signal) = mean signal of 1X Tb-MCl-1 + Cy5 Bim peptide+ inhibitor control or 100% inhibition of Mcl-1; NC (neutral control, high signal) = mean signal 1X Tb-MCl-1 + Cy5 Bim peptide with DMSO only or 0% inhibition An 11-point dose response curve was generated to determine IC50 values (using GenData) based on the following equation:
where Y = % inhibition in the presence of X inhibitor concentration; Top = 100% inhibition derived from the IC (mean signal of Mcl-1 + inhibitor control); Bottom = 0% inhibition derived from the NC (mean signal of Mcl-1 + DMSO); Hillslope = Hill coefficient; and IC50 = concentration of compound with 50% inhibition in relation to top/neutral control (NC).
In this assay [L] = 8 nM and Kd = 10 nM

[2] = system: MOLP-8 human multiple myeloma cell line; test: Caspase-Glo 3/7 apoptosis induction assay in MOLP-8 cells; type: cell-based; details: MOLP8 cells, 2 hours at 37° C.; 30 µM highest conc.; averaged over all runs on all batches
Excerpt: MCL-1 is a regulator of apoptosis and is highly over-expressed in tumor cells that escape cell death. The assay evaluates the cellular potency of small-molecule compounds targeting regulators of the apoptosis pathway, primarily MCL-1, Bfl-1, Bcl-2, and other proteins of the Bcl-2 family. Protein-protein inhibitors disrupting the interaction of anti-apoptotic regulators with BH3-domain proteins initiate apoptosis.
The Caspase-Glo® 3/7 Assay is a luminescent assay that measures caspase-3 and -7 activities in purified enzyme preparations or cultures of adherent or suspension cells. The assay provides a proluminescent caspase-3/7 substrate, which contains the tetrapeptide sequence DEVD. This substrate is cleaved to release aminoluciferin, a substrate of luciferase used in the production of light. Addition of the single Caspase-Glo® 3/7 Reagent in an “add-mix-measure” format results in cell lysis, followed by caspase cleavage of the substrate and generation of a “glow-type” luminescent signal.
This assay uses the MOLP-8 human multiple myeloma cell line, which is sensitive to MCL-1 inhibition.
Cell cultures were maintained between 0.2 and 2.0 ×10^6 cells/mL. The cells were harvested by collection in 50 mL conical tubes. The cells were then pelleted at 500 g for 5 mins before removing supernatant and resuspension in fresh pre-warmed culture medium. The cells were counted and diluted as needed.
The assay reagent was prepared by transferring the buffer solution to the substrate vial and mixing. The solution may be stored for up to 1 week at 4° C. with negligible loss of signal.
Compounds were delivered in assay-ready plates (Proxiplate) and stored at -20° C. Assays always include 1 reference compound plate containing reference compounds. The plates were spotted with 40 nL of compounds (0.5% DMSO final in cells; serial dilution; 30 µM highest conc. ⅓ dilution, 10 doses, duplicates). The compounds were used at room temperature and 4 µL of pre-warmed media was added to all wells except column 2 and 23. The negative control was prepared by adding 1% DMSO in media. The positive control was prepared by adding the appropriate positive control compound in final concentration of 60 µM in media. The plate was prepared by adding 4 µL negative control to column 23, 4 µL positive control to column 2 and 4 µL cell suspension to all wells in the plate. The plate with cells was then incubated at 37° C. for 2 hours. The assay signal reagent is the Caspase-Glo solution described above, and 8 µL was added to all wells. The plates were then sealed and measured after 30 minutes.
The activity of a test compound was calculated as percent change in apoptosis induction as follows:
• %Effect (AC50) = 100 - ((sample-LC) / (HC-LC)) *100 • %Control = (sample /HC)* 100 • %Control min = ((sample-LC) / (HC-LC)) *100

Chain of Myeloid Cell Leukemia 1 (Mcl-1) (Q07820 whole entry): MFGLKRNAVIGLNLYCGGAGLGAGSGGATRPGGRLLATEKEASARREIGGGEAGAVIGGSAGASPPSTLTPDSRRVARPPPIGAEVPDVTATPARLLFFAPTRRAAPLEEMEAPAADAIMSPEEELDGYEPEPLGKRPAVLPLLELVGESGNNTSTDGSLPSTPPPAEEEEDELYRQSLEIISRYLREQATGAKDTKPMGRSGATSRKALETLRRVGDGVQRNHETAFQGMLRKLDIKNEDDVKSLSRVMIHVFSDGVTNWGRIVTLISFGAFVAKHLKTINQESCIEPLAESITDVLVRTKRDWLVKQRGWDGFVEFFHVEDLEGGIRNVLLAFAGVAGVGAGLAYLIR

SMILES	Ki [1] [nM]	AC50 [2] [nM]
Cc1nn2c(c1C)-c1c(Cl)ccc3c1c(C)c(C(=O)O)n3CCCOc1cc(cc3cc(F)ccc13)CCc1cc(nn1C)CCC2 (single isomer, unassigned) [Compound 1]	0.04	26
Cc1nn2c(c1C)-c1c(Cl)ccc3c1c(C)c(C(=O)O)n3CCCOc1cc(cc3cc(F)ccc13)CCc1cc(nn1C)CCC2 (single isomer, unassigned) [Compound 2]	3.28	1930
Cc1nn2c(c1C)-c1c(Cl)ccc3c1c(C)c(C(=O)O)n3CCCOc1cc(cc3ccccc13)SCc1cc(nn1C)CCC2 (single isomer, unassigned) [Compound 3]	0.1	131
Cc1nn2c(c1C)-c1c(Cl)ccc3c1c(C)c(C(=O)O)n3CCCOc1cc(cc3ccccc13)SCc1cc(nn1C)CCC2 (single isomer, unassigned) [Compound 4]	1.57	4010
Cc1nn2c(c1C)-c1c(Cl)ccc3c1c(C)c(C(=O)O)n3CCCOc1cc(cc3ccccc13)SCc1cn(nn1)CCC2 (single isomer, unassigned) [Compound 5]	5.21	8180
Cc1nn2c(c1C)-c1c(Cl)ccc3c1c(C)c(C(=O)O)n3CCCOc1cc(cc3ccccc13)SCc1cn(nn1)CCC2 (single isomer, unassigned) [Compound 6]	445	> 30000
Cc1nn2c(c1C)-c1c(Cl)ccc3c1c(C)c(C(=O)O)n3CCCOc1cc(cc3ccccc13)SCc1cnn(c1)CCC2 (single isomer, unassigned) [Compound 7]	0.95	3180
Cc1nn2c(c1C)-c1c(Cl)ccc3c1c(C)c(C(=O)O)n3CCCOc1cc(cc3ccccc13)SCc1cnn(c1)CCC2 (single isomer, unassigned) [Compound 8]	422	27500

Reference: patent US20230234965A1, “N-LINKED MACROCYCLIC 4-(PYRAZOL-5-YL)-INDOLE DERIVATIVES AS INHIBITORS OF MCL-1” (Janssen Pharmaceutica NV, priority 2020, published 2023)
